Results on 15 compounds are retold here after patent US4879295A, “N-tetrazolyl thiazolecarboxyamide derivatives and their use” (Sawai Pharmaceutical Co., Ltd., priority 1986, dated 1989).

Experiment [1] relates to passive cutaneous anaphylaxis (PCA). Description: Anti-passive cutaneous anaphylaxis (PCA) activity in rats, 48-hours PCA (TEST EXAMPLE 1). The experiment is classed as in vivo, rat (Wistar strain male). Particulars: Rattus norvegicus. The procedure: Anti-passive cutaneous anaphylaxis (PCA) activity in rats
(§1) Wistar strain male rats (6 weeks old) were purchased from Shizuoka Experimental Animal Agricultural Cooperative (Japan), habituated to a breeding environment for 1 week before using for the experiment.
(2) Preparation of antiserum
Preparation of antiserum was carried out according to the method described in J. Immunol. 106, 1002-1011 (1971).
(§2) Thus, Ascaris suum extract was dinitrophenylated (DNP-As) and infused subcutaneously together with dead Bordetella pertussis at four sites on the foot-pad. After 5 days, the rats were boostered with DNP-As (1 mg) at the dosal muscle. After 3 days, bloods samples were collected and serum was separated which was used as anti DNP-As antiserum. The titer of the antiserum was measured by rats 48-hours PCA and found to be 1:200.
Rats were sensitized with 35 times dilution of anti DNP-As antiserum administered at two sites in the pre-clipped right dosal skin. After 48 hours, DNP-As (500 μg in 0.5% Evans blue-physiological saline (1 ml) was administered into caudal vein to elicit the reaction. Then, 30 minutes later, the animals were decapitated, the dosal skin was peeled, two sensitized areas as well as one control area were cut off and analyzed for Evans blue exudation which was used as an indicative of the reaction according to the method disclosed in Microbiol. Immunol. 22, 89-101 (1978). Thus, cut skins were treated with 1N-NaOH (1 ml) and incubated at 37° C. for 16 hours to dissolve the skin tissue. A mixed solution (9 ml) of 0.6N-phosphoric acid-acetone (5:13) was added and the mixture was centrifuged (300 r.p.m) for 15 minutes. The supernatant was assayed for absorption at 620 nm and the exudation of Evans blue was determined. Test compounds (I) were administered either into caudal vein 5 minutes before the elicitation of the reaction, or perorally as a suspension in 0.5% 1 hour before the elicitation.

Experiment [2] shares this test system. In words: Anti-passive cutaneous anaphylaxis (PCA) activity in rats, P.O. only (TEST EXAMPLE 2). The experiment is classed as in vivo, rat (Wistar strain male). Particulars: 1 hour before elicitation. As for the experimental part: as §1, §2
Rats were sensitized with 35 times dilution of anti DNP-As antiserum administered at two sites in the pre-clipped right dosal skin. […] The supernatant was assayed for absorption at 620 nm and the exudation of Evans blue was determined. […]

Where [3] appears, read: iv, I.V. (caudal vein), 5 minutes before elicitation.
The mark [4] stands for this setting: po, P.O., 1 hour before elicitation.

SMILES strings stand for the structures.

In general, inhibition in vivo refers to the change of the read-out against control, counted positive when it falls. High values mean a response far below the control, low ones a response near the control. For `O=C(Nc1nnn[nH]1)c1csc(-c2cccc(C(F)(F)F)c2)n1` [Compound I-17, 2-(3-trifluoromethylphenyl)-N-(1H-tetrazole-5-yl)-4-thiazolecarboxamide], the inhibition in vivo at 2 mg/kg in experiment [1] (setting [3]) is 98%. On the same count and under the same terms, to `O=C(Nc1nnn[nH]1)c1csc(-c2cc([N+](=O)[O-])ccc2O)n1` [Compound I-21, 2-(2-hydroxy-5-nitrophenyl)-N-(1H-tetrazole-5-yl)-4-thiazolecarboxamide] belongs 98%. As to `O=C(O)c1cc(=O)c2c(OCC(O)COc3cccc4oc(C(=O)O)cc(=O)c34)cccc2o1` [DSCG, disodium cromoglicate, reference compound], the inhibition in vivo at 5 mg/kg in experiment [1] (iv, I.V. (caudal vein), 5 mg/kg, 5 minutes before elicitation) stood at 92%. Turning to `COc1ccc(O)c(-c2nc(C(=O)Nc3nnn[nH]3)cs2)c1` [Compound I-20, 2-(2-hydroxy-5-methoxyphenyl)-N-(1H-tetrazole-5-yl)-4-thiazolecarboxamide], testing at 2 mg/kg in experiment [1] (setting [3]) gave an inhibition in vivo of 93%. On the same count and under the same terms, to `COc1ccc(-c2nc(C(=O)Nc3nnn[nH]3)cs2)cc1` [Compound I-4] belongs 98%. Compound `Cc1ccc(-c2nc(C(=O)Nc3nnn[nH]3)c(C)s2)cc1` [Compound I-27, 2-(4-methylphenyl)-5-methyl-N-(1H-tetrazole-5-yl)-4-thiazolecarboxamide] came in with an inhibition in vivo at 25 mg/kg in experiment [1] (po, P.O., 25 mg/kg, 1 hour before elicitation) of 91%. On to `O=C(Nc1nnn[nH]1)c1csc(-c2ccccc2O)n1` [Compound I-1], for which, in experiment [1] (iv, I.V. (caudal vein), 0.5 mg/kg, 5 minutes before elicitation), 0.5 mg/kg produced 67% inhibition in vivo. In experiment [1] (iv, I.V. (caudal vein), 1.5 mg/kg, 5 minutes before elicitation), this compound gave an inhibition in vivo at 1.5 mg/kg of 98%. Besides, testing at 2 mg/kg in experiment [1] (setting [3]) gave an inhibition in vivo of 99%. For orientation: Inhibition means the change of the read-out against control, counted positive when it falls. The low end stands for a weak effect, the high end for a strong effect. On to `Cc1ccc(-c2nc(C(=O)Nc3nnn[nH]3)c(C)s2)s1` [Compound I-42, 2-(5-Methyl-2-thienyl)-5-methyl-N-(1H-tetrazole-5-yl)-4-thiazolecarboxamide], for which the Inhibition in experiment [2] (25 mg/kg) is 73%. The compound `COc1ccc(/C=C/C(=O)Nc2ccccc2C(=O)O)cc1OC` [Tranilast, tranilast, reference compound] yielded an inhibition in vivo at 50 mg/kg in experiment [1] (setting [4]) of 0%. The Inhibition in experiment [2] (50 mg/kg) worked out at 0%. As to `COc1cccc(-c2nc(C(=O)Nc3nnn[nH]3)cs2)c1` [Compound I-3, 2-(3-methoxyphenyl)-N-(1H-tetrazole-5-yl)-4-thiazolecarboxamide], the inhibition in vivo at 2 mg/kg in experiment [1] (setting [3]) stood at 99%. In experiment [1] (setting [4]), this compound gave an inhibition in vivo at 30 mg/kg of 77%. `Cc1ccc(-c2nc(C(=O)Nc3nnn[nH]3)cs2)cc1` [Compound I-7] yielded an inhibition in vivo at 30 mg/kg in experiment [1] (setting [4]) of 76%. With `Cc1ccc(O)c(-c2nc(C(=O)Nc3nnn[nH]3)cs2)c1` [Compound I-22, 2-(2-hydroxy-5-methylphenyl)-N-(1H-tetrazole-5-yl)-4-thiazolecarboxamide], the inhibition in vivo at 2 mg/kg in experiment [1] (setting [3]) was 81%. The same measure, in the same setting: to `O=C(Nc1nnn[nH]1)c1csc(-c2ccccc2OCc2ccccc2)n1` [Compound I-23, 2-(2-benzyloxyphenyl)-N-(1H-tetrazole-5-yl)-4-thiazolecarboxamide] belongs 98%. Still for that read-out and setting: the figure for `O=C(Nc1nnn[nH]1)c1csc(-c2cc(Cl)ccc2O)n1` [Compound I-19, 2-(5-chloro-2-hydroxyphenyl)-N-(1H-tetrazole-5-yl)-4-thiazolecarboxamide] is 97%. Consider `COc1ccccc1-c1nc(C(=O)Nc2nnn[nH]2)cs1` [Compound I-2], for which the inhibition in vivo at 2 mg/kg in experiment [1] (setting [3]) was 99%. The compound also had an inhibition in vivo at 50 mg/kg in experiment [1] (setting [4]) of 60%.
